Data reported in publication PMC3728333, “Development of an Epidermal Growth Factor Derivative with EGFR Blocking Activity” (PLoS ONE, 2013).

Tests used:
EGFR [1] = conditions: ref [30]; cited from earlier work
From the text: The binding of EGF through the three interaction sites of EGFR shifts the equilibrium between the two distinct EGFR conformations to the untethered one, enabling the dimerization arm in domain II to interact with an identical dimerization arm of another receptor to form the dimer, [14].

EGFR [2] = conditions: ref [11], [12], cited from earlier work
From the text: (§1) Our group has previously described that the Potato Carboxypeptidase Inhibitor (PCI) is an antagonist of human EGF. PCI is a 39-residue protein folded into a 27-residue globular core stabilized by three disulfide bonds that adopts the same conformation as EGF, the T-Knot scaffold. This similar structure probably accounts for the antagonistic activity.

human cancer cell lines = conditions: several human cancer cell lines; ref [11], [12]; cited from earlier work
From the text: as §1

EGFR [3] = conditions: ref [39], [40]; cited from earlier work
From the text: It is known that activated EGFR traffics from the plasma membrane to the cytoplasm through endocytic vesicles. Then, internalized EGFR can be eventually degraded in lysosomes, or recycled to the plasma membrane. Moreover, several reports have identified additional intracellular destinations for the internalized receptor, including ...

Caco-2 cells = assay: Cell proliferation (MTT), Caco-2; type: cell-based, human; conditions: Caco-2, any concentration tested (10, 20 and 150 nM), 96 h (4 days), medium without FBS, vs untreated
Method: (§2) The optimal cell seeding concentration was previously established for both cell types, as described in the supporting information (Fig S1), in order to maintain the cells in an exponential growth phase along the experiment. The cells were allowed to attach and grow for 72 h in culture medium, then the cells were washed and medium without FBS was added to the cells for 24 h. […] The treatments were removed, and the cells were washed with PBS and incubated for 3 h with 100 μl of fresh culture medium together with 10 μl of MTT (3-(4,5-dimethylthiazol-2-yl)-2,5-diphenyltetrazolium bromide) (Sigma-Aldrich, St. Louis, MO, USA). Medium was discarded and dimethyl sulfoxide (DMSO) (Sigma-Aldrich, St. Louis, MO, USA) was added to each well to dissolve the purple formazan crystals. Plates were agitated at room temperature for 10 min and the absorbance of each well was determined with an absorbance microplate reader (ELx800, BioTek, Winooski, VT, USA) at a wavelength of 570 nm. Three replicates were used for each treatment. The cell viability was determined as a percentage of the untreated control cells, by dividing the mean absorbance of each treatment by the mean absorbance of the untreated cells.

MCF-7 cells = assay: Cell proliferation (MTT), MCF-7; type: cell-based, human; conditions: MCF-7, 20 and 150 nM, 72 h (3 days), medium without FBS, vs untreated
Method: as §2

Q: For `Cc1ccc(C(=O)Nc2ccc(S(=O)(=O)O)c3cc(S(=O)(=O)O)cc(S(=O)(=O)O)c23)cc1NC(=O)c1cccc(NC(=O)Nc2cccc(C(=O)Nc3cc(C(=O)Nc4ccc(S(=O)(=O)O)c5cc(S(=O)(=O)O)cc(S(=O)(=O)O)c45)ccc3C)c2)c1` [suramin], which “interference with hEGF-EGFR interaction” value (EGFR [1]) is on record?
A: Its value is “prevents hEGF from interacting with EGFR at site 3”.

Q: With “Potato Carboxypeptidase Inhibitor (QQHADPICNKPCKTHDDCSGAWFCQACWNSARTCGPYVG; UniProt P01075 1-39, looked up) [PCI, 39-residue protein folded into a 27-residue globular core stabilized by three disulfide bonds]” as the compound, how does the “affinity for EGFR (in words)” value (EGFR [2]; earlier work) read?
A: Its value is “very low”.

Q: What about the EGFR activation (EGFR [2]) of the same compound?
A: The EGFR activation was “inhibited EGFR activation”.

Q: And the EGFR down regulation (EGFR [2])?
A: Its EGFR down regulation is “induced the down regulation of the receptor”.

Q: And the “competition with EGF for binding to EGFR” value (EGFR [2])?
A: Its value is “competed with EGF for binding to EGFR”.

Q: And the “effective concentration compared to EGFt/hEGF (in words)” value (EGFR [2])?
A: Its value is “one order of magnitude higher (μM)”.

Q: What about the “anti-proliferative activity in vitro” value (human cancer cell lines) of the same compound?
A: The value was “showed anti-proliferative activity in vitro in several human cancer cell lines”.

Q: Which “stability of binding to EGFR at pH of endosomes” value (EGFR [3]) does the source give for TGF-α: EGFR native ligand here?
A: Its value is “rapidly dissociates from the receptor when exposed to the low pH of endosomes”.

Q: What does the source list for human Epidermal Growth Factor [hEGF]?
A: cell proliferation (in words) (Caco-2 cells): moderated but significant proliferative effect; stability of binding to EGFR at pH of endosomes (EGFR [3]): relatively more stable at the pH of endosomes; cell proliferation (in words) (MCF-7 cells): proliferative effect
